Measurements as given in US12344610B2, “APOL1 inhibitors and methods of use” (Maze Therapeutics, Inc., priority 2022, dated 2025).

Key:
Assay type in all cases: cell-based
APOL1 G2 = molecular target: T1, APOL1 G2 (Homo sapiens, UniProt O14791, DEL388-389); test: APOL1-mediated calcium transport (calcium influx) assay, HEK T-REx/GCaMP6f/APOL1 G2 K6.3 cells, FLIPR TETRA; conditions: prevention of calcium influx; geometric mean of at least 2 assay runs; † = average of a technical replicate from a single assay run
T1 construct: expressed in transfected cells; host or cells: HEK293 T-REx clonal line stably expressing GCaMP6f (HEK T-REx/GCaMP6f/APOL1 G2 K6.3), doxycycline induced
T1 sequence (O14791 with tags, fused parts or gaps DEL388-389): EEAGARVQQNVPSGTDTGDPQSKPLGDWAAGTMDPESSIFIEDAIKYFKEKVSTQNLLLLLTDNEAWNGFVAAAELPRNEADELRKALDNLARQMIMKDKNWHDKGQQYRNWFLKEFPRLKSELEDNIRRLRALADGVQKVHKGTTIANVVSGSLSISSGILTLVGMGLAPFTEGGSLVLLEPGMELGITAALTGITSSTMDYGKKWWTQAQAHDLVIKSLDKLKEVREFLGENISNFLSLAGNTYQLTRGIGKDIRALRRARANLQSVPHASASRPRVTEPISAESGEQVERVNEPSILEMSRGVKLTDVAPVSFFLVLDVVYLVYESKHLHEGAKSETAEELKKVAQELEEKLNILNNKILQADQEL
In short: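 A HEK293 T-REx clone stably expressing GCaMP6f had APOL1 G2 induced with doxycycline (20 ng/mL solution added) for 6 h. Cells were then washed into Ca2+-free Tyrode's buffer (pH 7.4) and preincubated with compounds (duplicate 8-point) for 10 min at room temperature. Ca2+ injection to 5 mM final produced FLIPR GCaMP fluorescence, giving AC50 for influx inhibition (geometric mean, ≥2 runs).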

[1] = system: HEK293 cells overexpressing APOL1 G2; test: APOL1 G2 HEK293 cell rescue assay (reversal of cell death caused by overexpression of APOL1); conditions: Homo sapiens, HEK293, HEK293 overexpressing APOL1 G2; geometric mean of at least 2 assay runs; † = single assay run
In short: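 EC50 is the half-maximal effective concentration for reversing cell death driven by APOL1 G2 overexpression in HEK293 cells. Reported as geometric mean of at least 2 runs on separate days, each run averaging duplicate wells per plate; some values from a single run.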

[2] = system: HEK293 clonal cell line overexpressing APOL1 G1; test: APOL1 G1 HEK293 cell rescue assay (Example B3); conditions: Homo sapiens, HEK293, HEK293 clonal line overexpressing APOL1 G1; geometric mean of at least 2 runs; † = single run; ¥ = concentration at 50% rescue estimated (no sigmoidal curve)
In short: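 HEK293 clonal line overexpressing APOL1 G1; EC50 is half-maximal reversal of APOL1-induced cell death. Values are the geometric mean of ≥2 runs on separate days, each run the average of duplicate wells. Where no sigmoidal curve could be fitted, the concentration giving 50% rescue was estimated.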

| SMILES | AC50 (APOL1 G2) | EC50 [1] | EC50 [2] |
| --- | --- | --- | --- |
| O=C1Nc2ccc(Cl)cc2C12CCN(CCOc1cnc(C3(O)COC3)nc1)CC2 [Compound 429, 5-chloro-1′-(2-{[2-(3-hydroxyoxetan-3-yl)pyrimidin-5-yl]oxy}ethyl)-1,2-dihydrospiro[indole-3,4′-piperidin]-2-one] | 435 nM | 130 nM | 200 nM |
| O=C1Nc2ccc(Cl)cc2C12CCN(CCOc1cnc(C3(O)CCC3)nc1)CC2 [Compound 430, 5-chloro-1′-(2-{[2-(1-hydroxycyclobutyl)pyrimidin-5-yl]oxy}ethyl)-1,2-dihydrospiro[indole-3,4′-piperidin]-2-one] | 518 nM | 72.9 nM | 123 nM |
| CC1(O)CN(c2ncc(OCCN3CCC4(CC3)C(=O)Nc3ccc(C#N)cc34)cc2C(F)(F)F)C1 [Compound 431, 1′-(2-{[6-(3-hydroxy-3-methylazetidin-1-yl)-5-(trifluoromethyl)pyridin-3-yl]oxy}ethyl)-2-oxo-1,2-dihydrospiro[indole-3,4′-piperidine]-5-carbonitrile] | 4870 nM | 18.7 nM | 37 nM |
| CC(C)(CO)c1ncc(OCCN2CCC3(CC2)C(=O)Nc2ccc(C#N)cc23)cn1 [Compound 432, 1′-(2-{[2-(1-hydroxy-2-methylpropan-2-yl)pyrimidin-5-yl]oxy}ethyl)-2-oxo-1,2-dihydrospiro[indole-3,4′-piperidine]-5-carbonitrile] | 2560 nM | 161 nM | 288 nM |
| C[C@]1(O)C[C@@H](n2cnc3cc(OCCN4CCC5(CC4)C(=O)Nc4ccc(Cl)cc45)cc(C(F)F)c32)C1 [Compound 445, 5-chloro-1′-(2-{[7-(difluoromethyl)-1-[(cis)-3-hydroxy-3-methylcyclobutyl]-1H-1,3-benzodiazol-5-yl]oxy}ethyl)-1,2-dihydrospiro[indole-3,4′-piperidin]-2-one] | 1110 nM | 8.15 nM | 29.4 nM |
| C[C@]1(O)C[C@@H](n2cnc3cc(OCCN4CCC5(CC4)C(=O)Nc4ccc(C#N)cc45)cc(C(F)F)c32)C1 [Compound 446, 1′-(2-{[7-(difluoromethyl)-1-[(cis)-3-hydroxy-3-methylcyclobutyl]-1H-1,3-benzodiazol-5-yl]oxy}ethyl)-2-oxo-1,2-dihydrospiro[indole-3,4′-piperidine]-5-carbonitrile] | 1180 nM | 33.2 nM | 82.5 nM |
| C[C@]1(O)C[C@@H](n2cnc3cc(OCCN4CCC5(CC4)C(=O)Nc4ccc(Cl)cc45)cc(OC(F)F)c32)C1 [Compound 447, 5-chloro-1′-(2-{[7-(difluoromethoxy)-1-[(cis)-3-hydroxy-3-methylcyclobutyl]-1H-1,3-benzodiazol-5-yl]oxy}ethyl)-1,2-dihydrospiro[indole-3,4′-piperidin]-2-one] | 1130 nM | 34.1 nM | 64.3 nM |
| C[C@]1(O)C[C@@H](n2cnc3cc(OCCN4CCC5(CC4)C(=O)Nc4ccc(C#N)cc45)cc(OC(F)F)c32)C1 [Compound 448, 1′-(2-{[7-(difluoromethoxy)-1-[(cis)-3-hydroxy-3-methylcyclobutyl]-1H-1,3-benzodiazol-5-yl]oxy}ethyl)-2-oxo-1,2-dihydrospiro[indole-3,4′-piperidine]-5-carbonitrile] | 1140 nM | 112 nM | 687 nM |
| CC(C)(O)c1ncc(OCCN2CCC3(CC2)C(=O)Nc2c(I)cc(Cl)cc23)cn1 [Compound 449, 5-chloro-1′-(2-((2-(2-hydroxypropan-2-yl)pyrimidin-5-yl)oxy)ethyl)-7-iodospiro[indoline-3,4′-piperidin]-2-one] | 609 nM | 102 nM | 247 nM |
| Cc1nc2cc(OCCN3CCC4(CC3)C(=O)Nc3ccc(Cl)cc34)cnc2n1[C@H]1C[C@@](C)(O)C1 [Compound 451, 5-chloro-1′-[2-({2-methyl-3-[(cis)-3-hydroxy-3-methylcyclobutyl]-3H-imidazo[4,5-b]pyridin-6-yl}oxy)ethyl]-1,2-dihydrospiro[indole-3,4′-piperidin]-2-one] | 459 nM | 32.1 nM | 115 nM |
| C[C@]1(O)C[C@@H](N2C(=O)NCc3cc(OCCN4CCC5(CC4)C(=O)Nc4ccc(Cl)cc45)cc(C(F)(F)F)c32)C1 [Compound 456, 5-chloro-1′-[2-({2-oxo-1-[(cis)-3-hydroxy-3-methylcyclobutyl]-8-(trifluoromethyl)-1,2,3,4-tetrahydroquinazolin-6-yl}oxy)ethyl]-1,2-dihydrospiro[indole-3,4′-piperidin]-2-one] | 1010 nM | 28.2 nM | 98.2 nM |
| CC1(C)OC(=O)c2cc(OCCN3CCC4(CC3)C(=O)Nc3ccc(Cl)cc34)cnc21 [Compound 458, 5-chloro-1′-[2-({7,7-dimethyl-5-oxo-5H,7H-furo[3,4-b]pyridin-3-yl}oxy)ethyl]-1,2-dihydrospiro[indole-3,4′-piperidin]-2-one] | 528 nM | 16.5 nM | 75.7 nM |
| [2H]C([2H])(Oc1cnc2c(c1)CCC(=O)N2[C@H]1C[C@](O)(C([2H])([2H])[2H])C1)C([2H])([2H])N1CCC2(CC1)C(=O)Nc1ccc(Cl)cc12 [Compound 462, 5-chloro-1′-[2-({7-oxo-8-[(cis)-3-hydroxy-3-(^2H3)methylcyclobutyl]-5,6,7,8-tetrahydro-1,8-naphthyridin-3-yl}oxy)(1,1,2,2-^2H4)ethyl]-1,2-dihydrospiro[indole-3,4′-piperidin]-2-one] | 943 nM | 17.8 nM | 53.4 nM |
| [2H]C([2H])(Oc1cc(C(F)(F)F)c2c(c1)ncn2[C@H]1C[C@@](C)(O)C1)C([2H])([2H])N1CCC2(CC1)C(=O)Nc1ccc(Cl)cc12 [Compound 463, 5-chloro-1′-[2-({1-[(cis)-3-hydroxy-3-methylcyclobutyl]-7-(trifluoromethyl)-1H-1,3-benzodiazol-5-yl}oxy)(1,1,2,2-^2H4)ethyl]-1,2-dihydrospiro[indole-3,4′-piperidin]-2-one] | 2840 nM | 5.84 nM | 13.2 nM |
